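Exposure lasted 48 hours, with cells grown in 96-well plates and compounds tested at five concentrations. Here, GI50 denotes the concentration required for 50% inhibition of growth.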 The source made the active and inactive calls. Rule as the data show it: active = GI50 up to about 1.1 µM and inactive = higher.
Assays:
Assay in all cases: NCI-60 cell line screen, 48 h
UACC-257 = tested on: UACC-257
SN12C = tested on: SN12C
HT-29 = tested on: HT-29
U-251 = tested on: U-251
SK-OV-3 = tested on: SK-OV-3
A549 = tested on: A549
CCRF-CEM = tested on: CCRF-CEM
A498 = tested on: A498
RPMI-8226 = tested on: RPMI-8226
KM12 = tested on: KM12
LOX IMVI = tested on: LOX IMVI
786-0 = tested on: 786-0
OVCAR-5 = tested on: OVCAR-5
SK-MEL-28 = tested on: SK-MEL-28
SF-539 = tested on: SF-539
SK-MEL-5 = tested on: SK-MEL-5

Measured: GI50

NC(=O)c1csc(C2C=CC(CO)O2)n1 (centres undefined)
inactive: UACC-257 > 100 µM | SN12C > 100 µM | HT-29 > 100 µM | U-251 > 100 µM | SK-OV-3 > 100 µM | A549 > 100 µM | CCRF-CEM > 100 µM | A498 > 100 µM | RPMI-8226 > 100 µM | KM12 > 10 µM | LOX IMVI > 100 µM | 786-0 > 100 µM | OVCAR-5 > 100 µM | SK-MEL-28 > 100 µM | SF-539 > 100 µM

COc1cc(CCc2ccncc2)cc(OC)c1OC
inactive: UACC-257 > 100 µM | SN12C > 100 µM | HT-29 > 100 µM | U-251 > 100 µM | A549 > 100 µM | SK-MEL-5 > 100 µM | CCRF-CEM > 100 µM | A498 > 100 µM | RPMI-8226 > 100 µM | KM12 > 100 µM | LOX IMVI > 100 µM | 786-0 > 100 µM | OVCAR-5 > 100 µM | SK-MEL-28 > 100 µM | SF-539 > 100 µM

CC(=O)c1c(O)c2c([nH]c1=O)CCCC2
inactive: SN12C 22.5 µM | HT-29 24.2 µM | U-251 23.6 µM | SK-OV-3 25.6 µM | A549 30 µM | CCRF-CEM > 100 µM | LOX IMVI 20.1 µM | 786-0 > 100 µM | SK-MEL-28 94.4 µM

CSC(C1c2ccccc2N(c2ccc(C)cc2)C2=NC(=O)N(C)C(=O)C21Cl)S(=O)(=O)c1ccc(C)cc1 (centres undefined)
inactive: UACC-257 23.7 µM | SN12C 21.7 µM | HT-29 26.2 µM | U-251 19.3 µM | SK-OV-3 42.1 µM | A549 34 µM | SK-MEL-5 17.3 µM | CCRF-CEM 10.8 µM | A498 33 µM | RPMI-8226 16 µM | LOX IMVI 20.5 µM | 786-0 18.5 µM | OVCAR-5 35.3 µM | SK-MEL-28 21 µM | SF-539 17.5 µM

Cc1cc(C)nc(NS(=O)(=O)c2ccc(Nc3c4ccccc4nc4c(C(=O)NCCN(C)C)cccc34)cc2)n1
inactive: SN12C 2.79 µM | HT-29 1.14 µM | U-251 3.72 µM | A549 3.13 µM | SK-MEL-5 5.75 µM | CCRF-CEM 1.26 µM | KM12 3.43 µM | LOX IMVI 1.74 µM | 786-0 11.6 µM | OVCAR-5 12.8 µM | SK-MEL-28 5.97 µM | SF-539 2.85 µM

N/N=C(\CCN1CCCC1)CC(c1ccccc1)c1c(O)c2ccccc2oc1=O (centres undefined)
inactive: UACC-257 > 100 µM | SN12C > 100 µM | HT-29 > 100 µM | U-251 > 100 µM | SK-OV-3 > 100 µM | A549 > 100 µM | SK-MEL-5 > 100 µM | CCRF-CEM > 100 µM | RPMI-8226 > 100 µM | KM12 > 100 µM | LOX IMVI > 100 µM | 786-0 > 100 µM | OVCAR-5 > 100 µM | SK-MEL-28 > 100 µM | SF-539 > 100 µM

COC(=O)C1=C(O)c2cc(-c3ccccc3)c(-c3ccccc3)c(C#N)c2NC(=O)C1
inactive: UACC-257 91.8 µM | SN12C 47.9 µM | HT-29 5.81 µM | U-251 7.69 µM | A549 3.5 µM | CCRF-CEM 7.14 µM | A498 33.9 µM | KM12 7.01 µM | 786-0 8.38 µM | SK-MEL-28 34.5 µM | SF-539 7.33 µM

Cc1cc2c(C)n[nH]c2c(C(=O)O)c1C
inactive: UACC-257 > 100 µM | SN12C > 100 µM | HT-29 > 100 µM | U-251 > 100 µM | A549 > 100 µM | CCRF-CEM > 100 µM | A498 > 100 µM | RPMI-8226 > 100 µM | KM12 > 100 µM | 786-0 > 100 µM | SK-MEL-28 > 100 µM | SF-539 > 100 µM

O=C(N/C(=C\c1ccc(/C=C(\NC(=O)c2ccccc2)c2nc3ccccc3[nH]2)cc1)c1nc2ccccc2[nH]1)c1ccccc1
inactive: UACC-257 > 100 µM | SN12C > 100 µM | HT-29 > 100 µM | U-251 > 100 µM | SK-OV-3 > 100 µM | A549 > 100 µM | SK-MEL-5 > 100 µM | CCRF-CEM > 100 µM | A498 > 100 µM | RPMI-8226 > 100 µM | LOX IMVI > 100 µM | 786-0 > 100 µM | OVCAR-5 > 100 µM | SK-MEL-28 > 100 µM | SF-539 > 100 µM

COC1CC(n2cc(F)c(N)nc2=O)OC1CO (centres undefined)
inactive: UACC-257 > 100 µM | SN12C > 100 µM | HT-29 > 100 µM | U-251 > 100 µM | SK-OV-3 > 100 µM | A549 > 100 µM | SK-MEL-5 > 100 µM | CCRF-CEM > 100 µM | RPMI-8226 > 100 µM | KM12 > 100 µM | LOX IMVI > 100 µM | 786-0 > 100 µM | OVCAR-5 > 100 µM | SK-MEL-28 > 100 µM

Fc1ccc(C2SCc3nc4ccccc4n32)cc1Cl (centres undefined)
inactive: UACC-257 22.8 µM | SN12C 16.3 µM | HT-29 37.1 µM | U-251 19.4 µM | SK-OV-3 17.5 µM | A549 25.8 µM | CCRF-CEM 25.6 µM | A498 33.7 µM | KM12 16.1 µM | LOX IMVI 17.9 µM | 786-0 27.7 µM | OVCAR-5 15.4 µM | SK-MEL-28 24.7 µM | SF-539 18.7 µM

Cc1ccc(S(=O)(=O)OC2CS[S+]([O-])CC2OS(=O)(=O)c2ccc(C)cc2)cc1 (centres undefined)
inactive: UACC-257 14.6 µM | SN12C 15.2 µM | HT-29 29.6 µM | U-251 14.8 µM | SK-OV-3 21.7 µM | A549 19 µM | SK-MEL-5 16 µM | A498 16.1 µM | RPMI-8226 5.74 µM | KM12 17.3 µM | LOX IMVI 12.1 µM | 786-0 16.8 µM | OVCAR-5 18.2 µM | SK-MEL-28 15.6 µM | SF-539 15.2 µM

O=C(CC1(O)C(=O)Nc2c(Cl)ccc(Cl)c21)c1ccc(Cl)cc1 (centres undefined)
inactive: UACC-257 29.9 µM | SN12C 18.2 µM | HT-29 28.2 µM | U-251 29.2 µM | SK-OV-3 34.8 µM | A549 45.5 µM | A498 38.4 µM | RPMI-8226 21 µM | KM12 28.4 µM | LOX IMVI 18.5 µM | 786-0 16.7 µM | OVCAR-5 35.2 µM | SK-MEL-28 53.7 µM | SF-539 24.8 µM

O=C(O)c1c2c(cc3c(=O)c4ccccc4[nH]c13)CCCC2
inactive: UACC-257 > 100 µM | SN12C > 100 µM | HT-29 > 100 µM | U-251 > 10 µM | SK-OV-3 > 100 µM | A549 > 100 µM | CCRF-CEM > 100 µM | RPMI-8226 > 100 µM | LOX IMVI 60.5 µM | 786-0 72.8 µM | OVCAR-5 > 100 µM | SK-MEL-28 > 100 µM | SF-539 > 100 µM
